# Several values for one entry are separate records, joined by “and”; a condition that tells them apart may be missing. Identical values can stand only once. Like-named read-outs stand apart in the source and are kept apart here.
# Experiments:
# [1] = tested on: Herpes Simplex Virus (HSV); experiment: Experiment #1: ozone gas exposure of virus on surfaces in a chamber
# [2] = tested on: Feline calicivirus (FCV); experiment: as above
# [3] = tested on: Mulluscum Contagiosum Virus (MCV)
# [4] = tested on: Poliovirus; settings: under similar conditions (about 100 ppm chamber)
# [5] = tested on: viruses
# [6] = tested on: HSV; experiment: Experiment #2: ozone inactivation at different locations within a test room; settings: 28 ppm, 60 minutes exposure; three samples at three locations in test room
# [7] = tested on: FCV; experiment: Experiment #3: reduced ozone doses and high humidity; settings: high humidity, 20 ppm to 40 ppm, about 15 minutes
# [8] = tested on: Poliovirus; settings: high humidity, 20 ppm to 40 ppm, about 15 minutes
# [9] = tested on: HSV; experiment: Experiment #3: reduced ozone doses and high humidity; settings: high humidity, 20 ppm to 40 ppm, about 15 minutes
# [10] = tested on: Herpes Simplex Virus (HSV); experiment: Experiment #4: ozone gas against dried viruses on surfaces
# [11] = tested on: FV
# [12] = tested on: MCV
# [13] = tested on: influenza virus
# [14] = tested on: corona virus
# [15] = tested on: rhinovirus; experiment: Experiment #4: ozone gas against dried viruses on surfaces; settings: dried state on glass, plastic, steel, wood and fabric
# [16] = tested on: Poliovirus; settings: dried state on glass, plastic, steel, wood and fabric
# [17] = tested on: viruses; remark: listed apart in the source
# [18] = tested on: Feline calicivirus (FCV)
# [19] = tested on: MS2 coliphage; settings: aqueous, 20 seconds, ozone demand-free 0.05 M phosphate buffer (pH 6.9) at 22 degrees C.; cited from earlier work
# [20] = tested on: Polio-virus type 3; settings: aqueous, 20 seconds, ozone demand-free 0.05 M phosphate buffer (pH 6.9) at 22 degrees C.; cited from earlier work
# [21] = tested on: Polio-viruses; settings: aqueous, 1.0 to 1.5 mg ozone/liter (dissolved); cited from earlier work
# [22] = tested on: Polio-virus 1 (PV1); settings: steadily flowing water at 20 degrees C. and pH 7; cited from earlier work
# [23] = tested on: Hepatitis A virus; settings: aqueous, 60 seconds, 1 mg/L or greater at all pH levels; cited from earlier work
# [24] = tested on: HIV Type 1; settings: 2 hours, 1,200 ppm; cited from earlier work
# [25] = target: factor VIII (Homo sapiens, UniProt P00451); settings: plasma and immunoaffinity-purified preparations; 2 hours, 1,200 ppm; cited from earlier work
# factor VIII, sequence (P00451 20-2351): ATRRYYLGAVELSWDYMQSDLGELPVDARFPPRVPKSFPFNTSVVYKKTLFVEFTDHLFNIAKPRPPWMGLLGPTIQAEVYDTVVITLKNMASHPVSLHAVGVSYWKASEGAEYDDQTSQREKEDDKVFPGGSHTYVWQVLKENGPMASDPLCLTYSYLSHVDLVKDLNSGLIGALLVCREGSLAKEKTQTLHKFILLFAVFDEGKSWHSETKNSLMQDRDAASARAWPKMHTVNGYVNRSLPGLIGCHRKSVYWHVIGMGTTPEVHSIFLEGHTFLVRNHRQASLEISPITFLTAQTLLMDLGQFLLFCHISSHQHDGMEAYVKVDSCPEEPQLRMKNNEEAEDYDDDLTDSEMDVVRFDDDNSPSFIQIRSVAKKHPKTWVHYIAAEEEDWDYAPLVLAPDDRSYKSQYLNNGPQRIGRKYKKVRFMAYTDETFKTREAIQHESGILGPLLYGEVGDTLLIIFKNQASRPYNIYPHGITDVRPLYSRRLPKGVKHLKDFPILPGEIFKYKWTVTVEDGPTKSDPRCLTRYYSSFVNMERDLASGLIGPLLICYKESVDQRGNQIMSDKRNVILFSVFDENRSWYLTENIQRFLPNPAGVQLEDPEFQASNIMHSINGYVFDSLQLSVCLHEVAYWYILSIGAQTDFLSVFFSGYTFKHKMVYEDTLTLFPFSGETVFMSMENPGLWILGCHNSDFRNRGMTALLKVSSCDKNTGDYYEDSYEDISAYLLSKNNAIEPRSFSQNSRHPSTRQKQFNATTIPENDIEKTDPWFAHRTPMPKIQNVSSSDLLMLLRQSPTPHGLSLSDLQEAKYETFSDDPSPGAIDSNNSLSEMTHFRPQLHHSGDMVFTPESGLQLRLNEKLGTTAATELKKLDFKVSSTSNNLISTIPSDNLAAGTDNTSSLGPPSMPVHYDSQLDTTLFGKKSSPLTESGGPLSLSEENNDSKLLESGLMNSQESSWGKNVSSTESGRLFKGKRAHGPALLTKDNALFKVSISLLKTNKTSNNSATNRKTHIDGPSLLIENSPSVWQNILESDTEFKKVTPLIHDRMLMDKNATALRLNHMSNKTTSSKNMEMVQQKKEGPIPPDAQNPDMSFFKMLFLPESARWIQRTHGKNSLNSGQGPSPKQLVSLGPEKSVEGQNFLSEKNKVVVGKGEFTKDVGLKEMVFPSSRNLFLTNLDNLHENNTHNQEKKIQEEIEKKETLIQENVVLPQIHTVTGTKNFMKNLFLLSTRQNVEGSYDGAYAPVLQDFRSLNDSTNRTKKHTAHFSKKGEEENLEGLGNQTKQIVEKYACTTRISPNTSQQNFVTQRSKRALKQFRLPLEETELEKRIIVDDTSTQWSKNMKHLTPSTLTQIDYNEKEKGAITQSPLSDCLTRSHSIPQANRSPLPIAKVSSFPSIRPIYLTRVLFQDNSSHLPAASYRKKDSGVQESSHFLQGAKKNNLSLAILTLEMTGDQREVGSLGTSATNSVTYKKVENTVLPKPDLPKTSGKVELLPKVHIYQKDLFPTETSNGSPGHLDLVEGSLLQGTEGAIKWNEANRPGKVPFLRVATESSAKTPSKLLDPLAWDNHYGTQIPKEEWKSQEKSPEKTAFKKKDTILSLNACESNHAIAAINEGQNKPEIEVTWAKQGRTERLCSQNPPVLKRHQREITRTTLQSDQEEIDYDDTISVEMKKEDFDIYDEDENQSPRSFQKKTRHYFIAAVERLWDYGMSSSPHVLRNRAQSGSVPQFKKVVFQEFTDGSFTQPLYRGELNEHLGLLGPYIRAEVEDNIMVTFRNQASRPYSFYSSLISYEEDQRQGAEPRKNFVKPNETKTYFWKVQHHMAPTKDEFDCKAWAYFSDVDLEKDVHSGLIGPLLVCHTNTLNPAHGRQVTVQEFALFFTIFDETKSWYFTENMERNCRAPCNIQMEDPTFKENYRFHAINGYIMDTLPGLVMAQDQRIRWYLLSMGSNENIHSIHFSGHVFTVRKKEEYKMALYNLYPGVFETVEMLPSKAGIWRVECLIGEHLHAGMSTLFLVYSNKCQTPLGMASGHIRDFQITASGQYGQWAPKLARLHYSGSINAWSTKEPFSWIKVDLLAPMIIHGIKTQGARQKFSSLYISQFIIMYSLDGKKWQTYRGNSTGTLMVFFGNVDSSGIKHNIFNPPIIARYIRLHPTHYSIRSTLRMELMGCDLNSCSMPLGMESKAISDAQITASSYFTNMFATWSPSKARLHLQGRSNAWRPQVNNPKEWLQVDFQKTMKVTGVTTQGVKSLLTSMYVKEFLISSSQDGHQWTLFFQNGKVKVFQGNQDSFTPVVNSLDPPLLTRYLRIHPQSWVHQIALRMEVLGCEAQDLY
# [26] = tested on: Human rotavirus; settings: cited from earlier work
# [27] = tested on: Venezuelan equine encephalomyelitis virus; settings: aqueous, 45 minutes, 0.025 mg of ozone per liter; control levels 10 (7.25-7.5); cited from earlier work
# [28] = tested on: Poliovirus; settings: 0.1-2.0 mg/l, aqueous, cited from earlier work
# [29] = tested on: HIV; settings: serum and serum-supplemented media; tested 0.5 to 4.0 micrograms/ml−1; cited from earlier work
# [30] = tested on: HEp-2 cell-associated poliovirus (Sabin 1); settings: cited from earlier work
# [31] = tested on: HEp-2 cell-associated coxsackievirus A9; settings: aqueous, 30 seconds, 4.06-4.68 mg/liter; cited from earlier work
# [32] = tested on: Influenza virus; settings: gaseous, in vivo, 0.5 ppm; cited from earlier work
# [33] = tested on: Human rotavirus; settings: aqueous, 25 μg/ml; cited from earlier work
# [34] = tested on: Vesicular stomatitis virus (VSV); settings: 3 to 14 mL of 1.4 mmol/L (65 micrograms/mL) to 1.6 mmoler/L, aqueous; cited from earlier work
# [35] = tested on: bacteriophage phi 6; settings: 3 to 14 mL of 1.4 mmol/L (65 micrograms/mL) to 1.6 mmoler/L, aqueous; cited from earlier work
# [36] = tested on: T1 phage; settings: gaseous, 10 minutes, 10 ppm; cited from earlier work
# [37] = tested on: Influenza virus; settings: inhaled, 0.5 ppm; cited from earlier work
# [38] = tested on: Respiratory syncytial virus; settings: gaseous, in vitro, 2 hours, 1 ppm; cited from earlier work
# [39] = tested on: Influenza virus; settings: continuous, 0.5 ppm; cited from earlier work
# [40] = tested on: Influenza virus; settings: 3 hours (post infection), 0.6 ppm; cited from earlier work
# [41] = tested on: Hepatitis A virus; settings: ozone and UV light, cited from earlier work
# [42] = tested on: type 39 rhinovirus; settings: cited from earlier work
substance,measurement,setting,value
Ozone,reduced the virus,[1]; 100 ppm for 20-30 minutes,more than 99%
same,inactivated virus infectivity,"[1]; 100 ppm, 10 minutes",90-95%
same,reduced the virus,[2]; 100 ppm for 20-30 minutes,more than 99%
same,inactivated virus infectivity,"[2]; 100 ppm, 10 minutes",90-95%
same,reduced the virus,[3],more than 99%
same,inactivation by ozone,[4],inactivated
same,susceptibility of viruses to ozone on surfaces,[5],susceptible
same,virus inactivation in high humidity versus ambient humidity,[5],much more efficiently
same,virus infectivity after exposure,[5],no vilus infectivity could be detected at all
same,HSV inactivated (killed),[6],98% and 99.4% and 97.8%
same,inactivated,[7],99.91%
same,inactivated,[8],more than 99.6%
same,inactivated,[9],more than 99%
same,reduced the virus,[10]; 100 ppm for 20 to 30 minutes,more than 99%
same,inactivation (kill) by ozone gas,"[10]; dried state on glass, plastic, steel, wood and fabric",efficiently inactivate
same,reduced the virus,[11],more than 99%
same,reduced the virus,[12],more than 99%
same,inactivation (kill) by ozone gas,[13],efficiently inactivate
same,inactivation (kill) by ozone gas,[14],efficiently inactivate
same,inactivation (kill) by ozone gas,[15],efficiently inactivate
same,inactivation (kill) by ozone gas,[16],efficiently inactivate
same,susceptibility of viruses to ozone on surfaces,[17],susceptible
same,virus inactivation in high humidity versus ambient humidity,[17],much more efficiently
same,inactivation by the ozone generator,[18],efficiently inactivated
same,MS2 coliphage inactivated,[19],>99.99% of MS2 coliphage
same,more inactivation observed with MS2 coliphage than with poliovirus type 3,[20],"inactivated, 1.6 log units more"
same,Effectiveness,[21],Dependant on the condition
same,Concentration for complete inactivation of PV1,[22],0.13 mg/L
same,complete inactivation,[23],complete (5 log) inactivation
same,inactivation,[24],>11 log inactivation (NB.
same,effect on factor VIII activity,[25],Minimal effect on factor VIII
same,sensitivity of human rotavirus to inactivation compared with simian rotavirus,[26],strikingly less sensitive to
same,inactivation,[27],Inactivation of 10 (6.5) median median cell culture infective doses
same,"virus inactivated, Step 1",[28]; Step 1: 0.2-1.0 s,Step 1: 95 to 99% of the virus
same,"virus inactivated, Step 2",[28]; Step 2: several minutes,Step 2: remainder inactivated
same,concentration at which complete inactivation of HIV obtained,[29],obtained at 4.0 micrograms/ml−1
same,Effectiveness (inactivation),[30],Inactivated cell-associated
same,Effectiveness (inactivation),[31],Inactivated cell-associated
same,Severity of infection,[32],Severity of infection reduced
same,decrease of rotavirus infectivity,[33],8 to 9 log10 TCID50/ml.
same,inactivated,[34],Inactivated by greater than 4 log10
same,inactivated,[35],Inactivated by greater than 4 log10
same,reduction in number of phages,[36],90% reduction in number of
same,distribution of viral antigen,[37],well as altered the distribution
same,spread of infection,[37],"less widespread infection, as"
same,"percentage of cells infected, experimental versus control groups",[38],No difference
same,acute virus-induced lung injury & residual lung damage,[39],exposure mitigates acute
same,mitigated the virus-induced acute lung injury,[39],approximately 50%. Ozone
same,proliferation of virus in the lungs as quantitated by infectious virus titers,[39],Ozone exposure did not alter
same,virus growth in nose,[40],Complete inhibition of virus
same,virus titre after depuration,"[41]; from 1.72 log TCID50 ml(−1), within 24 h",[TCID50] ml(−1) to <1 log log TCID50 ml(−1)
same,virus titre after depuration,"[41]; from 3.82 log TCID50 ml(−1), within 48 h",ml(−1) to <1 log TCID50 ml(−1)
same,adverse effects in experimental group,"[42]; human, in vivo",placebo groups; no adverse
same,effect on individuals infected with rhinovirus,"[42]; human, in vivo",no effect
same,"viral titres, experimental versus placebo groups","[42]; inhaled, 0.3 ppm, 6 hours per day for five days",No difference in viral titres

# From patent US20080213125A1, “Apparatus and Method for Using Ozone as a Disinfectant” (Huawei Technologies Co. LTD., priority 2004, published 2008)
